Values after ≈ are worked out from the molar mass of the structure shown. Values joined by “and” are separate entries in the source; they are usually repeats but may differ in a detail not shown here. Equal values may be shown once. Read-outs that look alike come from different tables or passages of the source.
Experiments:
[1] = tested on: Staphylococcus aureus; assay: MIC, Staphylococcus aureus (MSSA, MRSA); type: cell-based; conditions: for MIC: read-out: MIC
Source text: (§1) Bacterial isolates were subjected to broth microdilution susceptibility testing, performed according to Clinical and Laboratory Standards Institute (CLSI) methods ([46]), using panels prepared in-house. Meropenem was purchased from Sandoz, and all other antibiotics were from Sigma-Aldrich. Xeruborbactam was synthesized at Qpex Biopharma, San Diego, CA. Avibactam was purchased from eNovation Chemicals LLC, Bridgewater, NJ, USA; zidebactam was from MedKoo Biosciences, Inc., Morrisville, NC, and nacubactam was from Advanced ChemBlocks, Hayward, CA. Durlobactam was synthesized at Acme Bioscience, Palo Alto, CA, USA.

[2] = tested on: Enterococcus faecalis; assay: MIC, Enterococcus faecalis; type: cell-based
Source text: as §1

[3] = tested on: A. baumannii strain ATCC 17978; assay: Fluorescence microscopy, cellular morphology; type: cell-based, Acinetobacter baumannii; conditions: xeruborbactam, meropenem 1× and 2× MIC; aztreonam 2× MIC; amdinocillin 2 μg/mL
Method: Single colonies of K. pneumoniae strain KPM1026a, A. baumannii strain ATCC 17978, and P. aeruginosa strain PAM1154 were picked from LB agar plates, inoculated in cation-adjusted Mueller-Hinton broth (CA-MHB), and incubated overnight at 30°C with rolling. Overnight cultures were diluted into fresh CA-MHB and incubated at 30°C, with rolling, until they reached an OD600 of ≈0.12 to 0.15 (equivalent to ~2 × 10^8 CFU/mL). Samples were then treated with compounds and incubated at 30°C, with rolling. After 1 or 2 h of treatment, cells were collected and stained with a dye mix containing FM4-64 (1 μg/mL), DAPI (4′,6-diamidino-2-phenylindole) (2 μg/mL), and SYTOX green (0.5 μM) (Molecular Probes, Invitrogen, or Thermo Fisher Scientific). Cells were transferred onto an agarose pad containing 1.2% agarose and 20% LB medium for microscopy. Microscopy was performed as previously described ([34]).

[4] = tested on: Escherichia coli; assay: Broth microdilution MIC (CLSI), Escherichia coli; type: cell-based
Procedure, shortened: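 Test organisms were KPC-producing clinical isolates (some enriched for porin mutations), matched isolates that lost KPC plasmids, and engineered porin/efflux mutant strains. Susceptibility was measured by broth microdilution following CLSI methods, using panels prepared in-house.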

[5] = Staphylococcus aureus, MSSA, n = 12

With O=C(O)c1c(F)ccc2c1OB(O)[C@@H]1C[C@H]21 [Xeruborbactam] the MIC range ([1]; MSSA, n = 12) was 4 to 8 µg/mL, the MIC ([1]; Staphylococcus aureus, ATCC 29213 / MSSA, ATCC 29213, MSSA) was 4 µg/mL (≈ 18 µM) and the MIC ([1]; Staphylococcus aureus, MRSA, all the MRSA strains, n = 13) was > 32 µg/mL. For the same compound, the MIC ([1]; Staphylococcus aureus, MRSA, sa001, MRSA) was > 32 µg/mL, the MIC ([1]; Staphylococcus aureus, MRSA, sa010, MRSA) was > 32 µg/mL and the MIC ([1]; Staphylococcus aureus, MRSA, sa013, MRSA) was > 32 µg/mL. For the same compound, the MIC ([1]; Staphylococcus aureus, MRSA, sa014, MRSA) was > 32 µg/mL, the MIC ([1]; Staphylococcus aureus, MRSA, sa148, MRSA) was > 32 µg/mL and the MIC ([1]; Staphylococcus aureus, MRSA, sa150, MRSA) was > 32 µg/mL. For the same compound, the MIC ([1]; Staphylococcus aureus, MRSA, sa151, MRSA) was > 32 µg/mL, the MIC ([1]; Staphylococcus aureus, MRSA, sa152, MRSA) was > 32 µg/mL and the MIC ([1]; Staphylococcus aureus, MRSA, sa153, MRSA) was > 32 µg/mL. The MIC ([1]; Staphylococcus aureus, MRSA, sa278, MRSA) was > 32 µg/mL, the MIC ([1]; Staphylococcus aureus, MRSA, sa279, MRSA) was > 32 µg/mL and the MIC ([1]; Staphylococcus aureus, MRSA, sa280, MRSA) was > 32 µg/mL. For the same compound, the MIC ([1]; Staphylococcus aureus, MRSA, sa281, MRSA) was > 32 µg/mL, the MIC ([1]; Staphylococcus aureus, MSSA, sa002, MSSA) was 8 µg/mL (≈ 36 µM) and the MIC ([1]; Staphylococcus aureus, MSSA, sa003, MSSA) was 8 µg/mL (≈ 36 µM). It also gave an MIC ([1]; Staphylococcus aureus, MSSA, sa004, MSSA) of 8 µg/mL (≈ 36 µM), an MIC ([1]; Staphylococcus aureus, MSSA, sa005, MSSA) of 8 µg/mL (≈ 36 µM) and an MIC ([1]; Staphylococcus aureus, MSSA, sa006, MSSA) of 8 µg/mL (≈ 36 µM). It also gave an MIC ([1]; Staphylococcus aureus, MSSA, sa007, MSSA) of 8 µg/mL (≈ 36 µM), an MIC ([1]; Staphylococcus aureus, MSSA, sa008, MSSA) of 8 µg/mL (≈ 36 µM) and an MIC ([1]; Staphylococcus aureus, MSSA, sa009, MSSA) of 8 µg/mL (≈ 36 µM). For the same compound, the MIC ([1]; Staphylococcus aureus, MSSA, sa011, MSSA) was 8 µg/mL (≈ 36 µM), the MIC ([1]; Staphylococcus aureus, MSSA, sa012, MSSA) was 8 µg/mL (≈ 36 µM) and the MIC ([1]; Staphylococcus aureus, MSSA, sa015, MSSA) was 8 µg/mL (≈ 36 µM). For the same compound, the MIC50 [1, 5] was 8 µg/mL (≈ 36 µM), the MIC90 [1, 5] was 8 µg/mL (≈ 36 µM) and the MIC ([2]; all the E. faecalis strains, n = 16) was > 32 µg/mL. The MIC ([2]; efs003) was > 32 µg/mL, the MIC ([2]; efs004) was > 32 µg/mL and the MIC ([2]; efs005) was > 32 µg/mL. For the same compound, the MIC ([2]; efs006) was > 32 µg/mL, the MIC ([2]; efs007) was > 32 µg/mL and the MIC ([2]; efs026) was > 32 µg/mL. The MIC ([2]; efs071) was > 32 µg/mL, the MIC ([2]; efs072) was > 32 µg/mL and the MIC ([2]; efs073) was > 32 µg/mL. For the same compound, the MIC ([2]; efs090) was > 32 µg/mL, the MIC ([2]; efs091) was > 32 µg/mL and the MIC ([2]; efs092) was > 32 µg/mL. For the same compound, the MIC ([2]; efs093) was > 32 µg/mL, the MIC ([2]; efs094) was > 32 µg/mL and the MIC ([2]; efs095) was > 32 µg/mL. The MIC ([2]; efs096) was > 32 µg/mL, the cellular morphology [3] was “cell shape deformation, from coccobacilli to a football shape” and the MIC ([4]; EC1078, PBP2 same as MG1655, PBP3 I332V) was 32. It also gave an MIC ([4]; EC1081, PBP2 same as MG1655, PBP3 Q227H) of 8, an MIC ([4]; EC1085, PBP2 T331P, PBP3 A233T I332V) of 8 and an MIC ([4]; EC1088, PBP2 A308G, PBP3 same as MG1655) of 8. For the same compound, the MIC ([4]; EC1097, PBP2 M574I, PBP3 Q227H) was 8, the MIC ([4]; EC1098, PBP2 V217M, PBP3 YRIN ins, I532L) was 8 and the MIC ([4]; EC1103, PBP2 same as MG1655, PBP3 YRIN ins, Q227H, E349K, I532L) was 8. For the same compound, the MIC ([4]; EC1105, PBP2 A543T, PBP3 YRIN ins, Q227H, E349K, I532L) was 8, the MIC ([4]; EC1119, PBP2 same as MG1655, PBP3 YRIN ins, Q227H, E349K, I532L) was 32 and the MIC ([4]; EC1121, PBP2 V217M, PBP3 YRIN ins, E349K, I532L) was 8. For the same compound, the MIC50 ([4]; Escherichia coli, 334 isolates) was 8 µg/mL, the MIC90 ([4]; Escherichia coli, 334 isolates) was 16 µg/mL and the MIC range ([4]; Escherichia coli, 334 isolates) was 2 to 32 µg/mL. The MIC ([4]; Escherichia coli, Escherichia coli isolates, read-out: highest MIC observed) was 32 µg/mL, the MIC ([4]; Escherichia coli, MG1655, Escherichia coli ECM5497 (MG1655), read-out: MIC) was 72 µM and 16 µg/mL and the MIC ([4]; Escherichia coli, clinical isolate EC1078, OmpK35 NF, OmpK36 NF, read-out: MIC) was 32 µg/mL. It also gave an MIC ([4]; Escherichia coli, clinical isolate EC1081, OmpK35 FN, OmpK36 FN, read-out: MIC) of 8 µg/mL, an MIC ([4]; Escherichia coli, clinical isolate EC1085, OmpK35 FN, OmpK36 FN, read-out: MIC) of 8 µg/mL and an MIC ([4]; Escherichia coli, clinical isolate EC1088, OmpK35 FN, OmpK36 FN, read-out: MIC) of 8 µg/mL. For the same compound, the MIC ([4]; Escherichia coli, clinical isolate EC1097, OmpK35 FN, OmpK36 FN, read-out: MIC) was 8 µg/mL, the MIC ([4]; Escherichia coli, clinical isolate EC1098, OmpK35 NF, OmpK36 FN, read-out: MIC) was 8 µg/mL and the MIC ([4]; Escherichia coli, clinical isolate EC1119, OmpK35 NF, OmpK36 NF, read-out: MIC) was 32 µg/mL. The MIC ([4]; Escherichia coli, clinical isolate EC1121, OmpK35 NF, OmpK36 FN, read-out: MIC) was 8 µg/mL, the MIC ([4]; Escherichia coli, strain ECM5497, wild type, read-out: MIC) was 8 µg/mL and the MIC ([4]; Escherichia coli, strain ECM6001, ΔacrB) was 8 µg/mL. It also gave an MIC ([4]; Escherichia coli, strain ECM6502, marR (AcrAB overexpression)) of 8 µg/mL and an MIC ([4]; Escherichia coli, strain ECM5497, read-out: MIC) of 8 µg/mL.
